Experimental data from patent US20210138274A1, “ACCUMULATIVE BORON 10 MEDICINE FOR BORON NEUTRON CAPTURE THERAPY FOR SELECTIVELY OR LOCALLY TARGETING TUMOR TISSUES IN SHORT TIME” (HIROSAKI UNIVERSITY, priority 2018, published 2021).
Entries after “also recorded” stand apart in the source; their conditions may differ. Where no end group is shown, it is not given here. Side-chain parts run from the residue outwards. EMCS = N-(6-maleimidocaproyloxy)succinimide crosslinker

Assays:
[1] = test system: tumor-bearing mice seeded on the thigh with a murine bladder cancer cell MBT2; conditions: mouse, in vivo
Description: Tumor accumulation ability was tested in tumor-bearing mice (7 mm in tumor diameter) seeded on the thigh with a murine bladder cancer cell MBT2, with respect to IF7-^10BPA synthesized in Synthesis Example 1 above and IF7-^10BSH synthesized in Synthesis Example 2 above. 100 μL (175 μg) of IF7-^10BPA or IF7-^10BSH adjusted to 7 mg/kg was administered to the tail vein of the tumor-bearing mice. ^10B levels (ppm) in the organs of the tumor-bearing mice were measured 5, 10, and 20 minutes after the tail-vein administration by the PGA-method.
^10B levels in the respective organs of the tumor-bearing mice were measured in the same manner as in Example 1, except that the measurement was performed 40 minutes after the administration in addition to 5, 10 and 20 minutes, the number of n in the respective data was 3 or more, and the measurement results were indicated in violin plots.
^10B levels in the respective organs of the tumor-bearing mice were measured in the same manner as in Example 3, except that instead of IF7-^10BPA, [10B]boronophenylalanine (^10BPA) in the same concentration was administered. The results are indicated in violin plots in FIG. 3B.
^10B levels in the respective organs of the tumor-bearing mice were measured in the same manner as in Comparative Example 2, except that the concentration of ^10BPA was changed from 7 mg/kg to 100 mg/kg. […]

[2] = test system: tumor-bearing mice seeded in the thigh with murine bladder cancer cell strain MBT2; assay: Neutron irradiation test (tumor volume, hot group vs cold group); assay type: in vivo; conditions: 7 mg/kg tail vein, neutron irradiation 40 minutes after administration; for effect of reducing the tumor volume, hot group versus cold group: tumor volumes (mm^3) measured for 21 days, FIGS. 5, 6
Description: IF7-^10BPA was administered to the tail vein of tumor-bearing mice seeded in the thigh with murine bladder cancer cell strain MBT2 at a dosage amount of 7 mg/kg. Thereafter, tumor volumes (mm^3) thereof were measured for 21 days, with respect to a group (hot group), which was irradiated 40 minutes after the tail-vein administration with neutrons for 30 minutes under the following conditions and a group (cold group), which was not irradiated. In the drawing, * represents p<0.05.
(1) Neutron fluence (cm^−2·s^−1) 2.1E^+12 (2.1×10^12) to 4.6E^+12 (2) Physical dose (Gy) Thermal neutrons: 2.8E^−1 to 6.1E^−1 Epithermal neutrons: 3.0E^−2 to 6.5E^−2 Fast neutrons: 2.1E^−1 to 4.6E^−1 Gamma rays: 2.1E^−1 to 4.6E^−1 Total: 8.9E^−1 to 1.5E^0
Administration was performed in the same manner as in Example 5, except that IF7-^10BSH was administered instead of IF7-^10BPA. Thereafter, tumor volumes (mm^3) were measured for 21 days with respect to the hot group which was irradiated with neutrons 40 minutes after the administration and the cold group which was not irradiated.
IF7-^10BPA was administered to tail vein of the tumor-bearing mice seeded with murine bladder cancer cell strain MBT2 at a dosage amount of 7 mg/kg. Thereafter, tumor volumes (mm^3) were measured for 21 days with respect to a hot group which was irradiated with neutrons 40 minutes after the tail-vein administration and a cold group which was not irradiated.
The administration was performed in the same manner as in Example 7, except that 1BPA was administered instead of IF7-^10BPA, tumor volumes (mm^3) were measured for 21 days with respect to the hot group irradiated 40 minutes after the administration with neutrons and the cold group which was not irradiated.

[3] = test system: tumor-bearing mice (murine bladder cancer cell MBT2); assay: Tumor accumulation ability test, Comparative Example 1 (^10B levels in organs, ICP-AES method); assay type: in vivo; conditions: FIG. 2
Description: Additionally, as Comparative Example 1, a tumor accumulation ability test was similarly performed using R-D-fructopyranose, 2′ position of which is esterified with [10B]boronophenylalanine group represented by the formula (a) (hereinafter, simply referred to as “^10BPA-fructose”). 100 μL (2,000 μg) of ^10BPA-fructose whose dosage amount was increased to 100 mg/kg was administered to the tail vein of tumor-bearing mice. ^10B levels (ppm) in the respective organs of the tumor-bearing mice were measured 20, 40, and 60 minutes after the tail-vein administration by ICP-AES method. FIG. 2 is a drawing indicating ^10B levels (ppm) in the organs of the tumor-bearing mice at 20, 40, and 60 minutes after tail-vein administration of 100 μL (2,000 μg) of ^10BPA-fructose.

Substance | ^10B level in the tumor compared with ^10BPA 100 mg/kg (Comparative Example 3) [1] | effect of reducing the tumor volume, hot group IF7-^10BPA (Example 7) versus hot group ^10BPA (Comparative Example 5) ([2]; 21 days, FIGS. 6A, 6B) | effect of reducing the tumor volume, hot group versus cold group [2] | accumulation of ^10B in the tumor tissue ([3]; 100 mg/kg (100 μL, 2,000 μg) tail vein, 20, 40, and 60 minutes after the administration) | discrimination of the tumor tissue from the other organs (^10B levels) ([3]; 100 mg/kg tail vein, 20, 40, and 60 minutes)
IF7-^10BPA: peptide IFLLWQRCRR (SEQ ID NO: 2) crosslinked with EMCS between cysteine thiol and terminal amino group of a ^10B boronophenylalanine compound (IFLLWQRC([EMCS-(10B)boronophenylalanine])RR) | not inferior | effect of reducing the tumor volume was greater | effect of reducing the tumor volume was pronounced; also recorded: more pronounced in the hot group |  | 
IF7-^10BSH: peptide IFLLWQRKRR (SEQ ID NO: 3) crosslinked with EMCS between lysine amino group and thiol group of sodium [10B]borocaptate (IFLLWQRK([EMCS-sodium (10B)borocaptate])RR) |  |  | effect of reducing the tumor volume was pronounced |  | 
R-D-fructopyranose, 2′ position of which is esterified with [10B]boronophenylalanine group represented by the formula (a) [^10BPA-fructose] |  |  |  | did not accumulate at all in the tumor tissue | did not significantly discriminate the tumor tissue from the other organs
